US20020137154A1, “Methods for improving cell growth and alcohol production during fermentation” (priority 2000, published 2002)

Columns and labels:
[1] = system: recombinant Escherichia coli KO11; test: Batch fermentation of E. coli KO11 in 1% CSL medium and xylose with nutrient additives: ethanol production and cell growth; type: cell-based; settings: for activity at 2000 µg/mL: Escherichia coli
Procedure: (§1) Two types of media were tested: 1% CSL and Luria broth (LB). Each contained 97 g of either xylose or glucose per liter. Luria Broth consists of, per liter: 10 g Difco® Tryptone, 5 g Difco® Yeast Extract and 5 g NaCl. The 1% CSL medium consists of Corn Steep Liquor (1% w/v) plus mineral salts (mineral salts per liter: 1 g of KH2PO4. 0.5 g of K2HPO4, 3.1 g of (NH4)2SO4, 0.4 g of MgCl2·6H2), and 20 mg FeCl3·6H2O).
(§2) Luria Broth was prepared by autoclaving a 2× nutrient stock containing, per liter: 20 g Difco® Tryptone, 10 g Difo® Yeast Extract, and 10 g NaCl. Sugars (xylose or glucose) were autoclaved separately. A 1% CSL medium was prepared as follows: Commercial Corn Steep Liquor (CSL; 50% dry weight/50% water) was diluted with tap water to make a 20X stock containing 100 g dry weight of Corn Steep Liquor/L and was adjusted to pH 7.2 with NaOH (50%). After sterilization by autoclaving, the 20X CSL stock was clarified by centrifugation at 5000×g for 10 minutes. Magnesium was added as a 100× stock solution (40 g/L MgCl2·6H2O). Iron was added as a 1000× stock solution made by dissolving 20 g FeCl3·6H2O in 175 mL of HCl and adjusting to 1 L with sterile water. Nitrogen, sulfur and phosphorus were added using a 20× stock solution containing the following (per liter): 20 g of KH2PO4, 10 g of K2HPO4 and 62 g of (NH4)2SO4. Stock solutions containing minerals were sterilized separately by autoclaving. Final media was prepared by adding 750 mL of water to 1 L bottle containing 100 g of xylose or glucose.
Inocula were grown in same media used for fermentation and were prepared as follows. Three colonies from a fresh plate were used to inoculate seed cultures: 250-mL flask containing 100 mL medium. These cultures were grown with agitation (120 rpm) for 12-16 hours at 35° C. to a final OD550nm of approximately 2.0-2.5. Cells were harvested by centrifugation at 5000×g for 5 minutes, and resuspended in fresh media to an OD550nm of 0.1. The resulting suspension was distributed into 500-mL beakers containing 345 ml each of fermentation medium. Acetaldehyde was added as indicated. Batch fermentations (35° C., 100 rpm) were maintained at pH 6.5 by the automatic addition of 2N KOH. Cell mass, ethanol, and base addition (2N KOH) were recorded during 96 hours of incubation. […]
(§3) Additives (e.g., as listed in Table 1) were dissolved in 5 mL di-H2O. Solutions with pH lower than 5 were neutralized to pH 6.5 with 2N KOH. Nutritional supplements were then filter-sterilized (0.45 μm filter disk) directly into the fermentation vessel containing the culture. The final concentration of all additives in the culture medium was 2 g/L unless otherwise indicated.
(§4) Cell mass was estimated by measuring OD550nm using Baush & Lomb® Spectronic 70 spectrophotometer. […] Ethanol was measured by gas chromatography using a Varian® 3400 CX gas chromatograph with 1-propanol as an internal standard.
(§5) Tables 1, 3, and 5 show time to completion of fermentation, ethanol production, and volumetric productivity of the fermentation for all concentrations of the compound and the control. Maximum ethanol production is shown in grams/liter (g/L). The ethanol yield is shown in grams of ethanol/grams of added sugar. Maximum volumetric productivity is shown in grams ethanol/(liter)(hour). The average productivity is calculated form the start of fermentation to the completion of fermentation is grams ethanol/(liter)hour).
Tables 2, 4, and 6 show the initial growth of the cells (OD taken after the first 24 hours of fermentation) and the maximum cell density (the time which culture reaches the maximum OD value). […]

[2] = system: recombinant Escherichia coli KO11; test: Batch fermentation of E. coli KO11 in 1% CSL medium and glucose with nutrient additives: ethanol production and cell growth; type: cell-based; settings: for activity at 2000 µg/mL: Escherichia coli
Procedure: as §1, §2
Inocula were grown in same media used for fermentation and were prepared as follows. Three colonies from a fresh plate were used to inoculate seed cultures: 250-mL flask containing 100 mL medium. These cultures were grown with agitation (120 rpm) for 12-16 hours at 35° C. to a final OD550nm of approximately 2.0-2.5. Cells were harvested by centrifugation at 5000×g for 5 minutes, and resuspended in fresh media to an OD550nm of 0.1. The resulting suspension was distributed into 500-mL beakers containing 345 ml each of fermentation medium. Acetaldehyde was added as indicated. Batch fermentations (35° C., 100 rpm) were maintained at pH 6.5 by the automatic addition of 2N KOH. Cell mass, ethanol, and base addition (2N KOH) were recorded during 96 hours of incubation.
Equivalent amounts of distilled water were added instead of the acetaldehyde in control experiments.
as §3, §4, §5
Tables 2, 4, and 6 show the initial growth of the cells (OD taken after the first 24 hours of fermentation) and the maximum cell density (the time which culture reaches the maximum OD value).
Acetaldehyde was added to the fermentation medium at five different concentrations and time points. […] Where two additions are indicated, the first volume was added at the start of fermentation and the second was added after 8 hours of fermentation.

[3] = 1% CSL+xylose, additive 2 g/L unless indicated
[4] = 24 h, read-out: Initial Growth (OD @ 24 h) % Control, 1% CSL+xylose, additive 2 g/L unless indicated
[5] = read-out: Ethanol Production Maximum % Control, 1% CSL+xylose, additive 2 g/L unless indicated
[6] = read-out: Maximum Cell Density % Control, 1% CSL+xylose, additive 2 g/L unless indicated
[7] = read-out: Volumetric Productivity Average % Control, 1% CSL+xylose, additive 2 g/L unless indicated
[8] = read-out: Volumetric Productivity Maximum % Control, 1% CSL+xylose, additive 2 g/L unless indicated
[9] = 1% CSL+glucose, additive 2 g/L unless indicated
[10] = 24 h, read-out: Initial Growth (OD @ 24 h) % Control, 1% CSL+glucose, additive 2 g/L unless indicated
[11] = read-out: Ethanol Production Maximum % Control, 1% CSL+glucose, additive 2 g/L unless indicated
[12] = read-out: Maximum Cell Density % Control, 1% CSL+glucose, additive 2 g/L unless indicated
[13] = read-out: Volumetric Productivity Average % Control, 1% CSL+glucose, additive 2 g/L unless indicated
[14] = read-out: Volumetric Productivity Maximum % Control, 1% CSL+glucose, additive 2 g/L unless indicated

SMILES: C[C@H](N)C(=O)O [Alanine, alanine]
- Ethanol Production Maximum [1, 3]: 21.66 g/L
- Ethanol yield [1, 3]: 0.223 grams of ethanol/grams of added sugar
- Initial Growth (OD @ 24 h) OD [1, 3]: 1.66 OD
- Maximum Cell Density OD [1, 3]: 1.73 OD
- Maximum Cell Density Time [1, 3]: 48 h
- Volumetric Productivity Average [1, 3]: 0.226 grams ethanol/(liter)(hour)
- Volumetric Productivity Maximum [1, 3]: 0.240 grams ethanol/(liter)(hour)
- activity at 2000 µg/mL [1, 4]: 81.3%
- activity at 2000 µg/mL [1, 5]: 72%
- activity at 2000 µg/mL [1, 6]: 68.8%
- activity at 2000 µg/mL [1, 7]: 72%
- activity at 2000 µg/mL [1, 8]: 65.2%
- Ethanol Production Maximum [2, 9]: 34.37 g/L
- Ethanol yield [2, 9]: 0.354 grams of ethanol/grams of added sugar
- Initial Growth (OD @ 24 h) OD [2, 9]: 2.08 OD
- Maximum Cell Density OD [2, 9]: 2.68 OD
- Volumetric Productivity Average [2, 9]: 0.358 grams ethanol/(liter)(hour)
- Volumetric Productivity Maximum [2, 9]: 0.468 grams ethanol/(liter)(hour)
- activity at 2000 µg/mL [2, 10]: 78%
- activity at 2000 µg/mL [2, 11]: 92.9%
- activity at 2000 µg/mL [2, 12]: 99.8%
- activity at 2000 µg/mL [2, 13]: 92.9%
- activity at 2000 µg/mL [2, 14]: 91.1%

SMILES: N[C@@H](CC(=O)O)C(=O)O [Aspartate, aspartate]
- Ethanol Production Maximum [1, 3]: 27.90 g/L
- Ethanol yield [1, 3]: 0.287 grams of ethanol/grams of added sugar
- Initial Growth (OD @ 24 h) OD [1, 3]: 1.76 OD
- Maximum Cell Density OD [1, 3]: 2.45 OD
- Maximum Cell Density Time [1, 3]: 72 h
- Volumetric Productivity Average [1, 3]: 0.291 grams ethanol/(liter)(hour)
- Volumetric Productivity Maximum [1, 3]: 0.304 grams ethanol/(liter)(hour)
- activity at 2000 µg/mL [1, 4]: 86.3%
- activity at 2000 µg/mL [1, 5]: 92.7%
- activity at 2000 µg/mL [1, 6]: 97.2%
- activity at 2000 µg/mL [1, 7]: 92.7%
- activity at 2000 µg/mL [1, 8]: 82.4%
- Ethanol Production Maximum [2, 9]: 41.79 g/L
- Ethanol yield [2, 9]: 0.430 grams of ethanol/grams of added sugar
- Initial Growth (OD @ 24 h) OD [2, 9]: 2.86 OD
- Maximum Cell Density OD [2, 9]: 3.79 OD
- Volumetric Productivity Average [2, 9]: 0.580 grams ethanol/(liter)(hour)
- Volumetric Productivity Maximum [2, 9]: 0.759 grams ethanol/(liter)(hour)
- activity at 2000 µg/mL [2, 10]: 107%
- activity at 2000 µg/mL [2, 11]: 113%
- activity at 2000 µg/mL [2, 12]: 141%
- activity at 2000 µg/mL [2, 13]: 151%
- activity at 2000 µg/mL [2, 14]: 148%

SMILES: O=C(O)CC(O)(CC(=O)O)C(=O)O [Citrate]
- Ethanol Production Maximum [1, 3]: 28.80 g/L
- Ethanol yield [1, 3]: 0.296 grams of ethanol/grams of added sugar
- Initial Growth (OD @ 24 h) OD [1, 3]: 2.12 OD
- Maximum Cell Density OD [1, 3]: 2.47 OD
- Maximum Cell Density Time [1, 3]: 96 h
- Volumetric Productivity Average [1, 3]: 0.300 grams ethanol/(liter)(hour)
- Volumetric Productivity Maximum [1, 3]: 0.339 grams ethanol/(liter)(hour)
- activity at 2000 µg/mL [1, 4]: 104%
- activity at 2000 µg/mL [1, 5]: 95.7%
- activity at 2000 µg/mL [1, 6]: 98.1%
- activity at 2000 µg/mL [1, 7]: 95.7%
- activity at 2000 µg/mL [1, 8]: 92%
- Ethanol Production Maximum [2, 9]: 32.87 g/L
- Ethanol yield [2, 9]: 0.338 grams of ethanol/grams of added sugar
- Initial Growth (OD @ 24 h) OD [2, 9]: 2.43 OD
- Maximum Cell Density OD [2, 9]: 2.58 OD
- Volumetric Productivity Average [2, 9]: 0.342 grams ethanol/(liter)(hour)
- Volumetric Productivity Maximum [2, 9]: 0.502 grams ethanol/(liter)(hour)
- activity at 2000 µg/mL [2, 10]: 91%
- activity at 2000 µg/mL [2, 11]: 88.9%
- activity at 2000 µg/mL [2, 12]: 96%
- activity at 2000 µg/mL [2, 13]: 88.9%
- activity at 2000 µg/mL [2, 14]: 97.8%

SMILES: O=C(O)/C=C/C(=O)O [Fumarate]
- Ethanol Production Maximum [1, 3]: 28.49 g/L
- Ethanol Production Maximum % Control [1, 3]: 94.73%
- Ethanol yield [1, 3]: 0.293 grams of ethanol/grams of added sugar
- Initial Growth (OD @ 24 h) % Control [1, 3]: 91.16%
- Initial Growth (OD @ 24 h) OD [1, 3]: 1.86 OD
- Maximum Cell Density % Control [1, 3]: 103.15%
- Maximum Cell Density OD [1, 3]: 2.60 OD
- Maximum Cell Density Time [1, 3]: 96 h
- Time to completion [1, 3]: >96 h
- Volumetric Productivity Average [1, 3]: 0.297 grams ethanol/(liter)(hour)
- Volumetric Productivity Average % Control [1, 3]: 94.73%
- Volumetric Productivity Maximum [1, 3]: 0.345 grams ethanol/(liter)(hour)
- Volumetric Productivity Maximum % Control [1, 3]: 93.682%
- Ethanol Production Maximum [2, 9]: 32.92 g/L
- Ethanol Production Maximum % Control [2, 9]: 88.98%
- Ethanol yield [2, 9]: 0.339 grams of ethanol/grams of added sugar
- Initial Growth (OD @ 24 h) % Control [2, 9]: 99.76%
- Initial Growth (OD @ 24 h) OD [2, 9]: 2.67 OD
- Maximum Cell Density % Control [2, 9]: 117.92%
- Maximum Cell Density OD [2, 9]: 3.17 OD
- Maximum Cell Density Time [2, 9]: 72 h
- Time to completion [2, 9]: 96 h
- Volumetric Productivity Average [2, 9]: 0.343 grams ethanol/(liter)(hour)
- Volumetric Productivity Average % Control [2, 9]: 88.98%
- Volumetric Productivity Maximum [2, 9]: 0.559 grams ethanol/(liter)(hour)
- Volumetric Productivity Maximum % Control [2, 9]: 108.88%

SMILES: O=C(O)CC(C(=O)O)C(O)C(=O)O (stereo not shown) [Isocitrate]
- Ethanol Production Maximum [1, 3]: 33.02 g/L
- Ethanol yield [1, 3]: 0.340 grams of ethanol/grams of added sugar
- Maximum Cell Density OD [1, 3]: 3.01 OD
- Maximum Cell Density Time [1, 3]: 96 h
- Volumetric Productivity Average [1, 3]: 0.344 grams ethanol/(liter)(hour)
- Volumetric Productivity Maximum [1, 3]: 0.435 grams ethanol/(liter)(hour)
- activity at 2000 µg/mL ([1]; read-out: Maximum Cell Density % Control): 119%
- activity at 2000 µg/mL ([1]; read-out: Volumetric Productivity Maximum % Control): 118%
- Ethanol Production Maximum [2, 9]: 33.95 g/L
- Ethanol yield [2, 9]: 0.349 grams of ethanol/grams of added sugar
- Volumetric Productivity Average [2, 9]: 0.471 grams ethanol/(liter)(hour)
- Volumetric Productivity Maximum [2, 9]: 0.588 grams ethanol/(liter)(hour)
- activity at 2000 µg/mL ([2]; read-out: Ethanol Production Maximum % Control): 91.8%
- activity at 2000 µg/mL ([2]; read-out: Volumetric Productivity Average % Control): 122%
